Measurements: patent US7964531B2, “3-phenoxy-4-pyridazinol derivatives and herbicidal composition containing the same” (Mitsui Chemicals Agro, Inc., priority 2001, dated 2011)

Legend:
Format in all cases: in vivo
Conditions in all cases: wettable powder applied 3 days after transplanting, judged after 25 days
[1] = tested on: Cyperus serotinus; assay: Test Example 1: herbicidal effects, paddy-field pot test
Summary of the method: (§1)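 First, paddy soil was potted and seeded at the surface layer with non-dormant weed seeds; germinated Cyperus serotinus tubers were planted and 2.2-leaf rice transplanted. Three days later, diluted wettable powder was applied under flooding. Inhibition was rated 0–5 after 25 days.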

[2] = tested on: Scirpus joncoides; assay: as above
Summary of the method: as §1

[3] = tested on: annual broad-leaved weeds (Lindernia spp., Rotala indica); assay: as above
Summary of the method: as §1

[4] = tested on: barnyardgrass (Echinochloa oryzicola Vasing.); assay: as above
Summary of the method: as §1

[5] = tested on: transplanted paddy-field rice; assay: Test Example 1: crop injury against transplanted paddy-field rice
Summary of the method: as §1

SMILES | Herbicidal effects Cyperus serotinus ([1]; chemical dosage 12.5 g/a) | Herbicidal effects Cyperus serotinus ([1]; chemical dosage 25 g/a) | Herbicidal effects Scirpus joncoides ([2]; chemical dosage 12.5 g/a) | Herbicidal effects Scirpus joncoides ([2]; chemical dosage 25 g/a) | Herbicidal effects Broad leaf ([3]; chemical dosage 12.5 g/a) | Herbicidal effects Broad leaf ([3]; chemical dosage 25 g/a) | Herbicidal effects Barnyard grass ([4]; chemical dosage 12.5 g/a) | Herbicidal effects Barnyard grass ([4]; chemical dosage 25 g/a) | Crop injury against transplanted rice ([5]; chemical dosage 12.5 g/a) | Crop injury against transplanted rice ([5]; chemical dosage 25 g/a) | Herbicidal effects Cyperus serotinus ([1]; chemical dosage 10 g/a) | Herbicidal effects Cyperus serotinus ([1]; chemical dosage 20 g/a) | Herbicidal effects Scirpus joncoides ([2]; chemical dosage 10 g/a) | Herbicidal effects Scirpus joncoides ([2]; chemical dosage 20 g/a) | Herbicidal effects Broad leaf ([3]; chemical dosage 10 g/a) | Herbicidal effects Broad leaf ([3]; chemical dosage 20 g/a) | Herbicidal effects Barnyard grass ([4]; chemical dosage 10 g/a) | Herbicidal effects Barnyard grass ([4]; chemical dosage 20 g/a) | Crop injury against transplanted rice ([5]; chemical dosage 10 g/a) | Crop injury against transplanted rice ([5]; chemical dosage 20 g/a)
CC(C)(C)c1ccccc1Oc1nnc(Cl)cc1O [Example 61] | 5 (Growth inhibition rate; 91 to 100%) | 5 (Growth inhibition rate; 91 to 100%) | 5 (Growth inhibition rate; 91 to 100%) | 5 (Growth inhibition rate; 91 to 100%) | 5 (Growth inhibition rate; 91 to 100%) | 5 (Growth inhibition rate; 91 to 100%) | 1 (Growth inhibition rate; 11 to 30%) | 2 (Growth inhibition rate; 31 to 50%) | 0 (Growth inhibition rate; 0 to 10%) | 0 (Growth inhibition rate; 0 to 10%) | – | – | – | – | – | – | – | – | – | –
O=C(Oc1cc(Cl)nnc1Oc1ccccc1C1CC1)c1ccccc1 [Example 329] | – | – | – | – | – | – | – | – | – | – | 5 (Growth inhibition rate; 91 to 100%) | 5 (Growth inhibition rate; 91 to 100%) | 5 (Growth inhibition rate; 91 to 100%) | 5 (Growth inhibition rate; 91 to 100%) | 5 (Growth inhibition rate; 91 to 100%) | 5 (Growth inhibition rate; 91 to 100%) | 2 (Growth inhibition rate; 31 to 50%) | 4 (Growth inhibition rate; 71 to 90%) | 0 (Growth inhibition rate; 0 to 10%) | 0 (Growth inhibition rate; 0 to 10%)
Cc1cc(C)c(Oc2nnc(Cl)cc2O)c(C)c1 [Example 317] | 5 (Growth inhibition rate; 91 to 100%) | 5 (Growth inhibition rate; 91 to 100%) | 2 (Growth inhibition rate; 31 to 50%) | 3 (Growth inhibition rate; 51 to 70%) | 4 (Growth inhibition rate; 71 to 90%) | 5 (Growth inhibition rate; 91 to 100%) | 0 (Growth inhibition rate; 0 to 10%) | 0 (Growth inhibition rate; 0 to 10%) | 0 (Growth inhibition rate; 0 to 10%) | 1 (Growth inhibition rate; 11 to 30%) | – | – | – | – | – | – | – | – | – | –
CC1COc2cccc(Oc3nnc(Cl)cc3O)c21 (centres unmarked) [Example 182] | – | – | – | – | – | – | – | – | – | – | – | 5 (Growth inhibition rate; 91 to 100%) | – | 4 (Growth inhibition rate; 71 to 90%) | – | 5 (Growth inhibition rate; 91 to 100%) | – | 2 (Growth inhibition rate; 31 to 50%) | – | 0 (Growth inhibition rate; 0 to 10%)
Cc1cc(C)c(C)c(Oc2nnc(Cl)cc2O)c1 [Example 286] | 5 (Growth inhibition rate; 91 to 100%) | 5 (Growth inhibition rate; 91 to 100%) | 5 (Growth inhibition rate; 91 to 100%) | 5 (Growth inhibition rate; 91 to 100%) | 5 (Growth inhibition rate; 91 to 100%) | 5 (Growth inhibition rate; 91 to 100%) | 0 (Growth inhibition rate; 0 to 10%) | 0 (Growth inhibition rate; 0 to 10%) | 0 (Growth inhibition rate; 0 to 10%) | 0 (Growth inhibition rate; 0 to 10%) | – | – | – | – | – | – | – | – | – | –
Oc1cc(Cl)nnc1Oc1ccccc1F [Example 49] | 5 (Growth inhibition rate; 91 to 100%) | 5 (Growth inhibition rate; 91 to 100%) | 3 (Growth inhibition rate; 51 to 70%) | 4 (Growth inhibition rate; 71 to 90%) | 3 (Growth inhibition rate; 51 to 70%) | 5 (Growth inhibition rate; 91 to 100%) | 1 (Growth inhibition rate; 11 to 30%) | 2 (Growth inhibition rate; 31 to 50%) | 0 (Growth inhibition rate; 0 to 10%) | 0 (Growth inhibition rate; 0 to 10%) | – | – | – | – | – | – | – | – | – | –
Cc1ccc(C)c(Oc2nnc(Cl)cc2O)c1 [Example 205] | 5 (Growth inhibition rate; 91 to 100%) | 5 (Growth inhibition rate; 91 to 100%) | 5 (Growth inhibition rate; 91 to 100%) | 5 (Growth inhibition rate; 91 to 100%) | 5 (Growth inhibition rate; 91 to 100%) | 5 (Growth inhibition rate; 91 to 100%) | 0 (Growth inhibition rate; 0 to 10%) | 1 (Growth inhibition rate; 11 to 30%) | 0 (Growth inhibition rate; 0 to 10%) | 0 (Growth inhibition rate; 0 to 10%) | – | – | – | – | – | – | – | – | – | –
CC(C)c1cccc(Br)c1Oc1nnc(Cl)cc1O [Example 19] | 5 (Growth inhibition rate; 91 to 100%) | 5 (Growth inhibition rate; 91 to 100%) | 4 (Growth inhibition rate; 71 to 90%) | 4 (Growth inhibition rate; 71 to 90%) | 5 (Growth inhibition rate; 91 to 100%) | 5 (Growth inhibition rate; 91 to 100%) | 0 (Growth inhibition rate; 0 to 10%) | 1 (Growth inhibition rate; 11 to 30%) | 1 (Growth inhibition rate; 11 to 30%) | 1 (Growth inhibition rate; 11 to 30%) | – | – | – | – | – | – | – | – | – | –
Cc1ccc2c(c1Oc1nnc(Cl)cc1O)OCC2 [Example 308] | – | – | – | – | – | – | – | – | – | – | 5 (Growth inhibition rate; 91 to 100%) | 5 (Growth inhibition rate; 91 to 100%) | 4 (Growth inhibition rate; 71 to 90%) | 5 (Growth inhibition rate; 91 to 100%) | 5 (Growth inhibition rate; 91 to 100%) | 5 (Growth inhibition rate; 91 to 100%) | 2 (Growth inhibition rate; 31 to 50%) | 4 (Growth inhibition rate; 71 to 90%) | 0 (Growth inhibition rate; 0 to 10%) | 0 (Growth inhibition rate; 0 to 10%)
Oc1cc(Cl)nnc1Oc1cccc2occc12 [Example 183] | – | – | – | – | – | – | – | – | – | – | 5 (Growth inhibition rate; 91 to 100%) | 5 (Growth inhibition rate; 91 to 100%) | 5 (Growth inhibition rate; 91 to 100%) | 5 (Growth inhibition rate; 91 to 100%) | 5 (Growth inhibition rate; 91 to 100%) | 5 (Growth inhibition rate; 91 to 100%) | 1 (Growth inhibition rate; 11 to 30%) | 2 (Growth inhibition rate; 31 to 50%) | 0 (Growth inhibition rate; 0 to 10%) | 0 (Growth inhibition rate; 0 to 10%)
